Assay results: ChEMBL document CHEMBL2034827, “Identification of novel antimalarial chemotypes via chemoinformatic compound selection methods for a high-throughput screening program against the novel malarial target, PfNDH2: increasing hit rate via virtual screening methods” (J Med Chem, 2012)

Columns and labels:
[1] = Inhibition of recombinant Plasmodium falciparum NDH2 expressed in Escherichia coli ANN0222 by spectrophotometry
Plasmodium falciparum = assay: Antimalarial activity against blood stage form of Plasmodium falciparum 3D7 infected in human erythrocytes after 48 hrs by SYBR Green-based fluorometry; assay type: functional, organism-based; conditions: 3D7, 48 h

Row | Structure (SMILES) | IC50 [1] [nM] | IC50 (Plasmodium falciparum) [nM]
1 | O=C(Nc1ccc(F)c(F)c1)C1CCC(Cn2cnc3ccccc3c2=O)CC1 (stereo unspecified) | 1360 | 2080
2 | O=C1NC(=O)N(C2CCCCC2)C(=O)/C1=C/c1c(-c2ccccc2)[nH]c2ccccc12 | 512 | 5560
3 | CCn1cc(C(=O)NCc2ccc(Cl)cc2)c(=O)c2cc(F)c(N3CCN(C(=O)c4ccco4)CC3)cc21 | 295 | 5000
4 | CSc1nc2cc(Oc3ccc(Cl)c4ccccc34)c(Cl)cc2[nH]1 | 1040 | 2080
5 | CC(C)(Cc1cc(=O)c2ccccc2[nH]1)C1CCCCC1 | 78 | 3800
6 | CCCCCCCCCCCCc1cc(=O)c2ccccc2n1O | 70 | –
